Assay results taken from US5043328A, “Formulations containing unsaturated fatty acids for the synthesis of prostaglandins and hydroxy-fatty acids in biological systems” (priority 1986, dated 1991).
Where two headings read alike, the source gives them in different places.

Experiments:
[1] = target: T1, enzyme (from seminal vesicles of sheep) (Ovis aries, UniProt P05979); conditions: for PGD2 % / PGE2 % / PGF2alpha % / Stimulation: Table 1; for PGD2 % / PGE2 % / PGF2alpha %: share of total prostaglandin (=100%); for relative total prostaglandin f: seminal vesicle enzyme, 10 min, pH 8
T1 sequence (P05979 25-600): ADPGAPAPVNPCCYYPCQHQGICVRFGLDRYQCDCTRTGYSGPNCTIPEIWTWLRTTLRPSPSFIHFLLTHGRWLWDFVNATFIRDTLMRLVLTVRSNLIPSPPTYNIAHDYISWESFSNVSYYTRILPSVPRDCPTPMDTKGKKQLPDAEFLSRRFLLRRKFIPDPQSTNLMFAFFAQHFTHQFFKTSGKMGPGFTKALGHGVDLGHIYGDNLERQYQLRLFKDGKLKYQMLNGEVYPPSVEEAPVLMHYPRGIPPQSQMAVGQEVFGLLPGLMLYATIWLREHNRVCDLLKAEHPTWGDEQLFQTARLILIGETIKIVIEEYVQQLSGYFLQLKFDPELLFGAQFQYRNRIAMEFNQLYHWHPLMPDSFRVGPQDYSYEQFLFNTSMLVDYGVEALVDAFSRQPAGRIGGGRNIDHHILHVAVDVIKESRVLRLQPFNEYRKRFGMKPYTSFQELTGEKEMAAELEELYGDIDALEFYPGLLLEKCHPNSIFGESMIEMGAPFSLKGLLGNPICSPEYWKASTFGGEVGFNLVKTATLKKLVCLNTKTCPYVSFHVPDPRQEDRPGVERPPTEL
Method: Method 2: Prostaglandin Synthesis
0.3 ml of 0.03M potassium phosphate buffer of pH=8.0 contains 0.5 mg of enzyme (from seminal vesicles of sheep) (Biochemistry 10 (1971) 2372) or homogenate of the inner kidney medulla (Life Sciences 26 (1980) 765), 2.75 μg of ^14 C-arachidonic acid (0.5 μCi) and 0.5 mg of stimulator, and, if appropriate, 0.5 mg of stabilizer substance (see Table 1). After 10 minutes' incubation at 37° C., the reaction is stopped with 0.05 ml of 1.2M citric acid and the mixture is extracted with twice 0.5 ml of ethyl acetate, the combined extracts are freed of solvent, and the residue is dissolved in 0.2 ml of methanol, diluted 1:1 with water and separated by HPLC (nucleosil C-18 column, 125×4.6 mm, from Bischoff, Leonberg, Germany, solvent 300 ml of acetonitrile, 700 ml of water and 1 ml of glacial acetic acid and after 30 minutes pure methanol). The separation of the radioactive fractions is followed by a monitor (LB 504 from Berthold, Wildbad, Germany). The products formed, such as 6-keto-prostaglandin F2alpha, prostaglandin E2, prostaglandin F2alpha and prostaglandin D2, are separated under these conditions.
The prostaglandins PGE2, PGF2 alpha and PGD2 as products from arachidonic acid where quantified by means of method 2, and the sum was related as "total prostaglandin" to 100%. The quantity of "total prostaglandin" formed without the addition of a stimulator was set at f=1; the quantity formed after stimulation was related thereto. f=2 or f=3 therefore means twice or three times the stimulation under the conditions of method 2. The stability of the sample was investigated by means of method 1 (right-hand column). […] Values greater than 25-28% therefore represent a stabilization, and values smaller than 25-28% represent a destabilization. Example No. 1 was carried out without a stimulator. […] The substances test with respect to stabilization (see Method 1 for quantities) were: A) aqueous solution without stabilizer addition, B) ethanolic solution without further addition, C) pyridine solution, D) with rutin, predissolved in dimethyl sulfoxide, dimethyl sulfoxide then stripped off, E) like B) with lecithin, ethanol stripped off, F) like A) with cytochrome c from horse heart (from Boehringer, Mannheim, Germany), G) like A) with methemoglobin (human) (from Sigman, Munich, Germany), H) like A) with bovine serum albumin (from Calbiochem, Frankfurt, Germany), J) like A) or B), but solvent stripped off, K) like J) with cytochrome c, L) like J) with hemoglobin (human) (from Behringwerke, Marburg, Germany), and M) like J) with human serum albumin (from Behringwerke, Marburg, Germany).

[2] = for Stability (% of remaining arachidonic acid by Method 1): 24 h 37° C.; for Stability (% remaining fatty acid by Method 1): 1440 min; for undesired decomposition / byproducts of polyunsaturated fatty acid (arachidonic acid) with added stimulator: aqueous medium, result in words
Method: Method 1: Investigation of the Stability of Unsaturated Fatty Acids in the Formulations
The stabilizing action of substances on polyunsaturated fatty acids was investigated as follows:
Test A for Water-Soluble Substances:
0.125 mg of unsaturated fatty acid or Na salt (see tables) (sodium arachidonate, from Sigma, Munich, Germany) is dissolved in 0.05 ml of water. 0.2 ml of aqueous solution which contains 2 mg of stabilizer and can additionally contain 2 mg of stimulator is mixed in (cf. Table 1), 0.1 ml is then taken out immediately, extracted and analysed (see below). Further processing according to modification 1 or 2.
Modification 1 for Aqueous Solutions
After 24 hours incubation at 37° C., 0.1 ml is again taken, extracted and analysed (see below).
Modification 2 for Solid Mixtures (Lyophilisates)
The test solution is lyophilized, the lyophilisate is incubated for 24 hours at 37° C. and then dissolved again in the previous quantity of water, and 0.1 ml is taken, extracted and analysed (see below).
Test B for Water-Insoluble Substances:
0.125 mg of unsaturated fatty acid (arachidonic acid, 5,8,11,14,17-eicosapentaenoic acid or 8,11,14-eicosatrienoic acid, from Sigma, Munich) is dissolved in 0.05 ml of ethanol or dimethyl sulfoxide. 0.2 ml of ethanol (or dimethyl sulfoxide) which contains 2 mg of stabilizer and can additionally contain 2 mg of the stimulator (cf. Table 1) is added thereto, and 0.1 ml is taken immediately and, as below, extracted and analysed. Further treatment according to modification 1 or 2.
Modification 1 for Solutions
After 24 hours' incubation at 37° C., 0.1 ml is again taken, mixed with 0.1 ml of water, extracted and analysed.
Modification 2 for Solid Mixtures
The remaining solution is freed of solvent, incubated for 24 hours at 37° C. and then dissolved again in 0.15 ml of solvent, and 0.1 ml is taken, mixed with 0.1 ml of water, extracted and analysed.
0.05 ml of 1.2M aqueous citric acid solution is added to the samples obtained, and the samples are extracted with twice 0.5 ml of ethyl acetate, the ethyl acetate is removed from the combined extracts and the residue is dissolved in 0.8 ml of methanol and analysed by means of high-pressure liquid chromatography (HPLC) (Rad Pak C-18 column, 100×8 mm, from Waters, Konigstein, Germany, 1.5 ml/minute, solvent 800 ml of methanol, 200 ml of water and 0.1 ml of glacial acetic acid). The separation is monitored with a commercially available UV detector at 206 nm.
The prostaglandins PGE2, PGF2 alpha and PGD2 as products from arachidonic acid where quantified by means of method 2, and the sum was related as "total prostaglandin" to 100%. The quantity of "total prostaglandin" formed without the addition of a stimulator was set at f=1; the quantity formed after stimulation was related thereto. f=2 or f=3 therefore means twice or three times the stimulation under the conditions of method 2. The stability of the sample was investigated by means of method 1 (right-hand column). […] Values greater than 25-28% therefore represent a stabilization, and values smaller than 25-28% represent a destabilization. Example No. 1 was carried out without a stimulator.

[3] = A) aqueous solution without stabilizer addition
[4] = B) ethanolic solution without further addition
[5] = J) like A) or B), but solvent stripped off
[6] = M) like J) with human serum albumin
[7] = H) like A) with bovine serum albumin
[8] = D) with rutin, predissolved in dimethyl sulfoxide, dimethyl sulfoxide then stripped off
[9] = G) like A) with methemoglobin (human)
[10] = F) like A) with cytochrome c from horse heart
[11] = L) like J) with hemoglobin (human)

Compound	PGD2 % [1] [%]	PGE2 % [1] [%]	PGF2alpha % [1] [%]	Stability (% of remaining arachidonic acid by Method 1) [2, 3] [%]	Stability (% of remaining arachidonic acid by Method 1) [2, 4] [%]	Stability (% of remaining arachidonic acid by Method 1) [2, 7] [%]	relative total prostaglandin f [1]	also measured
NC(Cc1ccc(O)cc1)C(=O)O (stereo not drawn) [Example 6]	17	81	2	91	100			Stability (% of remaining arachidonic acid by Method 1) ([2]; C) pyridine solution): 67%; Stability (% of remaining arachidonic acid by Method 1) [2, 5]: 98%; Stability (% of remaining arachidonic acid by Method 1) ([2]; K) like J) with cytochrome c): 100%; Stability (% of remaining arachidonic acid by Method 1) [2, 6]: 100%
NCCc1ccc(O)c(O)c1 [Example 10]	13	52	35	17	95	100		Stability (% of remaining arachidonic acid by Method 1) ([2]; C) pyridine solution): 9%; Stability (% of remaining arachidonic acid by Method 1) ([2]; K) like J) with cytochrome c): 98%; Stability (% of remaining arachidonic acid by Method 1) [2, 6]: 100%
CC(=O)NC(Cc1ccc(O)cc1)C(N)=O (stereo not drawn) [Example 11]								Stimulation ([1]; result in words): positive; Stabilization [2]: positive
O=C(O)C=Cc1ccc(O)c(O)c1 [Example 17]	17	70	13	19		99	5.7	Stability (% of remaining arachidonic acid by Method 1) [2, 8]: 99%; Stability (% of remaining arachidonic acid by Method 1) [2, 9]: 95%; Stability (% of remaining arachidonic acid by Method 1) [2, 5]: 16%; Stability (% of remaining arachidonic acid by Method 1) [2, 6]: 98%
O=C(O)CCc1c[nH]c2ccc(O)cc12 [Example 21]	17	80	3				5.7	Stability (% remaining fatty acid by Method 1) [2]: 96%
NCCc1c[nH]c2ccc(O)cc12 [Example 22]	20	75	5	16	99		10.6	Stability (% of remaining arachidonic acid by Method 1) ([2]; E) like B) with lecithin, ethanol stripped off): 96%; Stability (% of remaining arachidonic acid by Method 1) [2, 10]: 98%; Stability (% of remaining arachidonic acid by Method 1) ([2]; K) like J) with cytochrome c): 98%; Stability (% of remaining arachidonic acid by Method 1) [2, 11]: 100%
NCCc1c[nH]c2ccccc12 [Example 23]	16	81	3	20		100		Stability (% of remaining arachidonic acid by Method 1) [2, 8]: 100%; Stability (% of remaining arachidonic acid by Method 1) [2, 10]: 98%; Stability (% of remaining arachidonic acid by Method 1) [2, 9]: 97%
O=C1N[C@@H](Cc2c[nH]c3ccccc23)C(=O)N[C@H]1Cc1ccc(O)cc1 [Example 32, Cyclo-TrpTyr]								Stimulation ([1]; result in words): positive; Stabilization [2]: positive
N[C@@H](CS)C(=O)O [Example 33, L-cysteine]	27	56	17					Stability (% remaining fatty acid by Method 1) [2]: 94%
N[C@@H](CCC(=O)N[C@@H](CS)C(=O)NCC(=O)O)C(=O)O [Example 35, Glutathione]	0	100	0	0	80	91	13.5	Stability (% of remaining arachidonic acid by Method 1) ([2]; C) pyridine solution): 0%; Stability (% of remaining arachidonic acid by Method 1) [2, 5]: 0%; Stability (% of remaining arachidonic acid by Method 1) [2, 11]: 92%; undesired decomposition / byproducts of polyunsaturated fatty acid (arachidonic acid) with added stimulator [2]: markedly greater quantity
O=C(O)CCCCC1CCSS1 (stereo not drawn) [Example 36, Lipoic acid]	8	43	49					stimulation of prostaglandin synthesis with much smaller quantities of undesired byproducts ([1]; mixtures with polyunsaturated fatty acids such as arachidonic acid, result in words): stimulated; undesired decomposition / byproducts of polyunsaturated fatty acid (arachidonic acid) with added stimulator [2]: fully suppressed
